Experimental data: US20080167444A1, “Abc Transporter Inhibitor” (priority 2004, published 2008)
“And” between values parts separate entries of the source, which are not always exact repeats. Identical values can stand only once.

Key:
PDR5 protein [1] = molecular target: T1, PDR5 protein (Saccharomyces cerevisiae, UniProt P33302); assay: Growth inhibition of yeast with overexpressed PDR5 in the presence of cycloheximide or cerulenin (absorbance at 660 nm); type: cell-based; conditions: for IC50: IC50 (concentration for 50% growth-inhibition), IC50 of cycloheximide or cerulenin, without or with addition of 5 μg/mL enniatin mixture or FK-506; for inhibition of growth of the yeast with overexpressed PDR5: test drug at 5 μg/mL, cycloheximide or cerulenin present, static culture 30° C. 24 hours
T1 construct: expressed in transfected cells; host or cells: Saccharomyces cerevisiae W303 (MAT a Δsyr/erg3::HIS3 Δpdr5::LEU2 Δsnq2::HIS3)
Method: (§1) Yeast with overexpressed PDR5 by transformation of the host yeast (Saccharomyces cerevisiae W303 (MAT a Δsyr/erg3::HIS3 Δpdr5::LEU2 Δsnq2::HIS3)) with the PDR5 expression vector and the host yeast were inoculated separately in 4 mL each of the minimum medium followed by shaking culture at 30° C. for 12 hours. To a 96-well microtiter plate to which cycloheximide or cerulenin of various concentrations had been added, was added purified enniatin B, B1, D, or enniatin mixture of various concentrations, followed by inoculation of the above-mentioned yeast. The volume per well was adjusted to 200 μL by addition of the minimum medium. After static culture at 30° C. for 24 hours, the extent of growth of yeast was determined for evaluation of the growth-inhibiting activity of the test drug against the yeast with overexpressed PDR5 and against the host yeast. The extent of growth of yeast was determined by measurement of absorbance at 660 nm using a microtiter plate reader (MTP-500; CORONA). The growth-inhibiting activity against the yeast with overexpressed PDR5 and against the host yeast was also determined for immunosuppressor FK-506, the positive control, which is known to inhibit yeast PDR5 protein and human MDR1 protein (P-glycoprotein).

PDR5 protein [2] = assay: Western blotting of PDR5 protein (quantity and stability); type: cell-based, yeast; conditions: after addition of the drug
From the text: The effects of enniatin B, B1, D, and enniatin mixture on the quantity of PDR5 protein as the translation product and on the stability of PDR5 protein were investigated by Western blotting of PDR5 protein. After addition of enniatin B, B1, D, or enniatin mixture, quantitative change of PDR5 protein was not observed, which confirmed that apparent inhibition of the function of PDR5 gene product is ascribable neither to inhibition of translation of PDR5 protein nor to reduced stability of the protein through acceleration of decomposition of PDR5 protein.

PDR5 protein [3] = molecular target: T1, PDR5 protein; assay: Rhodamine 6G accumulation in yeast with overexpressed PDR5 (fluorescence microscope); type: cell-based; conditions: drug at final concentration 25 μg/mL, 2 hours, then rhodamine 6G 30 minutes
Method: (§2) The above-mentioned strain with overexpressed PDR5 and the above-mentioned host yeast were separately subjected to shaking culture at 30° C. for 12 hours in 4 mL of the minimum medium. Then a quantity of yeast corresponding to 1.0×10^6 cells was inoculated to 4 mL of the minimum medium. Enniatin B, B1, D, enniatin mixture, or FK-506 was added to the final concentration of 25 μg/mL, and after shaking culture at 30° C. for 2 hours, 15 μL of rhodamine 6G (1 mg/mL) was added followed by culture under the same conditions for 30 minutes. After culture, the culture was washed twice with 2% glucose solution in PBS (phosphate-buffered saline) and the fluorescence in yeast cells was observed under a fluorescence microscope (Nicon ECLIPSE E400, using G-2A filter).

[4] = test system: host yeast (Saccharomyces cerevisiae W303 (MAT a Δsyr/erg3::HIS3 Δpdr5::LEU2 Δsnq2::HIS3)); assay: Growth inhibition of the host yeast (PDR5 and SNQ2 deleted); type: cell-based; conditions: test drug elevated to 5 μg/mL; static culture 30° C. 24 hours
Method: as §1

PDR5-deleted host yeast = assay: Rhodamine 6G accumulation in PDR5-deleted host yeast (fluorescence microscope); type: cell-based, Saccharomyces cerevisiae; conditions: drug at final concentration 25 μg/mL; compared with no addition of the drug
Method: as §2

PDR5 gene = assay: PDR5 transcription activity, β-galactosidase (lacZ) reporter downstream of Pdr5 promoter; type: cell-based, yeast; conditions: drug at final concentration 25 μg/mL, 8 hours; compared with no addition
Method: The effect of enniatin on expression of PDR5 gene was analyzed based on measurement of the PDR5 transcription activity using β-galactosidase gene as the reporter gene. Yeast, where had been introduced a recombinant plasmid obtained by fusion of β-galactosidase gene (lacZ) in the downstream of Pdr5 promoter, was subjected to shaking culture at 30° C. for 8 hours in 4 mL of YEPD medium, and a quantity of yeast corresponding to 1.0×10^6 cells was inoculated in 4 mL of the medium. At the same time, enniatin B, B1, D, enniatin mixture, or FK-506 was added to the final concentration of 25 μg/mL. After shaking culture at 30° C. for 8 hours, 1.0×10^7 yeast cells were collected. The cells were then suspended in 1 mL of Z buffer solution (60 mM disodium hydrogen phosphate, 40 mM sodium dihydrogen phosphate, 10 mM potassium chloride, 1 mM magnesium sulfate, 50 mM […], pH 7.0). The cell suspension was treated with 45 μL of chloroform and 30 μL of 0.1% sodium dodecyl sulfate at 30° C. for 5 minutes. The suspension was then treated with 200 μL of o-NPG (o-nitrophenyl-β-D-galactopyranoside) of 4 mg/mL at 30° C. for 10 minutes. After reaction was stopped by addition of 500 μL of 1 M sodium carbonate, absorbance at 420 nm was measured to determine the activity of β-galactosidase. The activity of β-galactosidase was calculated using a unit=1000×A420/10 (reaction time). […] Thus it could be confirmed that inhibition of PDR5 function by enniatin B, B1, D, enniatin mixture, or FK-506 is not ascribable to the inhibition of transcription of PDR5 gene.

T1 sequence (P33302 whole entry): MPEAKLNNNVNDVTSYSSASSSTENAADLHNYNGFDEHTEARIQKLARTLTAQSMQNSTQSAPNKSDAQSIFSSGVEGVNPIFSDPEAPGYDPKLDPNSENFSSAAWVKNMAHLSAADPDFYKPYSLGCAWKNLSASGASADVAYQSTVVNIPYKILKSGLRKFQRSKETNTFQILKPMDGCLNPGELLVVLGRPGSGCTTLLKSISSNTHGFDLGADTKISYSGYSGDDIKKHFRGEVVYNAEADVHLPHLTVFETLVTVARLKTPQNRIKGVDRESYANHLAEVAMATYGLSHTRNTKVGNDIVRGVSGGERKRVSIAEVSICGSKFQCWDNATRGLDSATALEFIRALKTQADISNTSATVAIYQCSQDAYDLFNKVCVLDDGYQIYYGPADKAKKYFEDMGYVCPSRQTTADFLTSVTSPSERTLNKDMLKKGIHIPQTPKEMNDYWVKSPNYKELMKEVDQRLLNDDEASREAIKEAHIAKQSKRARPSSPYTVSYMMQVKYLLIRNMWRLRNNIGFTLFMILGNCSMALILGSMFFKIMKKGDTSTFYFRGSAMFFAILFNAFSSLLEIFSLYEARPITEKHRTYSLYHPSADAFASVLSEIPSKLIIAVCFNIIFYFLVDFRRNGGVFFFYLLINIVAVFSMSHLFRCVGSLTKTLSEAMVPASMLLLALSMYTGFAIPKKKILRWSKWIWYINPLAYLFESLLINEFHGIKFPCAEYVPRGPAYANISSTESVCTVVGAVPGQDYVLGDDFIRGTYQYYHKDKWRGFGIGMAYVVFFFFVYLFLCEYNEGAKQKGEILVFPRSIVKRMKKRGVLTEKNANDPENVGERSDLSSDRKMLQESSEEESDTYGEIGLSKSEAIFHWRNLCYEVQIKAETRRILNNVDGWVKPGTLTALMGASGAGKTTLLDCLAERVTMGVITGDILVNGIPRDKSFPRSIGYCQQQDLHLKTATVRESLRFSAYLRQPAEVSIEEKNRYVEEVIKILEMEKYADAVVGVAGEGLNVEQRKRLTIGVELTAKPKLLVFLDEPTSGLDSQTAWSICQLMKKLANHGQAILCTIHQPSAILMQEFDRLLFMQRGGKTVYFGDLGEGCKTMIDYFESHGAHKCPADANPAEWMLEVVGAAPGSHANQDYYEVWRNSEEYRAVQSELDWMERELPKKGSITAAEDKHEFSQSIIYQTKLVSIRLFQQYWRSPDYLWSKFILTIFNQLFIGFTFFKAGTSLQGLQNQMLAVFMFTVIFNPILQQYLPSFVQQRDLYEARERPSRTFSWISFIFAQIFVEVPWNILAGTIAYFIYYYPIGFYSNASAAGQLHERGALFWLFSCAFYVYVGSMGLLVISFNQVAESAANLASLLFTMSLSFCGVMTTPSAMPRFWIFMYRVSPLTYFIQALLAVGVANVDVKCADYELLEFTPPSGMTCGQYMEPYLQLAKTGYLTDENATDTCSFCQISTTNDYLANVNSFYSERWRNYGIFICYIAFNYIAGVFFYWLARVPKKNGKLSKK

Row | Structure (SMILES) | IC50 (PDR5 protein [1]) | inhibition of growth of the yeast with overexpressed PDR5 (PDR5 protein [1]) | quantitative change of PDR5 protein (Western blotting) (PDR5 protein [2]) | rhodamine 6G accumulation in yeast with overexpressed PDR5 (PDR5 protein [3]) | inhibition of growth of the host yeast (cytotoxicity) [4] | rhodamine 6G accumulation in PDR5-deleted host yeast (PDR5-deleted host yeast) | activity of β-galactosidase (PDR5 transcription activity) (PDR5 gene)
1 | C/C=C/C/C=C/CCC(=O)[C@H]1O[C@H]1C(N)=O [Cerulenin] | 1500 nM and 1570 nM |  |  |  |  |  | 
2 | C[C@@H]1C[C@@H]([C@H](O)CC2CC(=O)NC(=O)C2)C(=O)[C@@H](C)C1 [Cycloheximide] | 462 nM and 434 nM |  |  |  |  |  | 
3 | CC[C@H](C)[C@H]1C(=O)O[C@H](C(C)C)C(=O)N(C)[C@@H](C(C)C)C(=O)O[C@H](C(C)C)C(=O)N(C)[C@@H](C(C)C)C(=O)O[C@H](C(C)C)C(=O)N1C [enniatin B1, Enniatin B1] |  | completely | not observed | accumulated rhodamine 6G | not observed | rhodamine 6G was accumulated in yeast cells | not different from that without addition of the drug
4 | CC(C)[C@H]1C(=O)O[C@H](C(C)C)C(=O)N(C)[C@@H](C(C)C)C(=O)O[C@H](C(C)C)C(=O)N(C)[C@@H](C(C)C)C(=O)O[C@H](C(C)C)C(=O)N1C [enniatin B, Enniatin B] |  | completely | not observed | accumulated rhodamine 6G | not observed | rhodamine 6G was accumulated in yeast cells | not different from that without addition of the drug
5 | CC(C)CC1C(=O)OC(C(C)C)C(=O)N(C)C(C(C)C)C(=O)OC(C(C)C)C(=O)N(C)C(C(C)C)C(=O)OC(C(C)C)C(=O)N1C (centres unmarked) [enniatin D, Enniatin D] |  | completely | not observed | accumulated rhodamine 6G | not observed | rhodamine 6G was accumulated in yeast cells | not different from that without addition of the drug
